Data reported in US6355799B1, “Substituted benzene compounds, process for their preparation, and herbicidal and defoliant compositions containing them” (ISK Americas Incorporated, priority 1997, dated 2002).

How the values were obtained:
Format in all cases: in vivo
[1] = tested on: upland rice (Oryza sp., var. Tebonnet, RICE); test: Post-emerge test, crop safety; conditions: rating scale 0-100 (0 no damage, 100 complete death), 14 days after application
Method in brief: (§1)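 Visual ratings on a 0-100 scale (0 no damage, 100 all plants dead) were taken at 14 days after treatment. Rates of 15-1000 g ai/ha in acetone, 187 l/ha, were sprayed onto soil one day after planting (pre-emerge) or onto 2-3 leaf plants with 0.25% v/v surfactant (post-emerge).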

[2] = tested on: field corn (Zea mays L., var. Dekalb 535, CORN); test: Post-emerge test, crop safety; conditions: rating scale 0-100 (0 no damage, 100 complete death), 14 days after application
Method in brief: as §1

[3] = tested on: redroot pigweed (Amaranthus retroflexus, AMARE); test: Pre-emerge test, greenhouse herbicide activity screening; conditions: rating scale 0-100, 14 days after application
Method in brief: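 Compounds in acetone were track-sprayed at 187 l/ha, 15–1000 g ai/ha, onto sandy loam pots. Pre-emerge seeds were sown one day before spraying, with surface watering afterwards. Post-emerge plants were at the 2–3 leaf stage and sprayed with 0.25% v/v non-ionic surfactant. Injury was rated 0–100 at 14 days.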

[4] = tested on: large crabgrass (Digitaria sanguinalis, DIGSA); test: as above; conditions: rating scale 0-100, 14 days after application
Method in brief: as §1

[5] = tested on: lambsquarters (Chenopodium album, CHEAL); test: as above; conditions: rating scale 0-100, 14 days after application
Method in brief: as §1

[6] = tested on: green foxtail (Setaria viridis, SETVI); test: as above; conditions: rating scale 0-100, 14 days after application
Method in brief: as §1

[7] = tested on: sicklepod (Cassia obtusifolia, CASOB); test: as above; conditions: rating scale 0-100, 14 days after application
Method in brief: as §1

[8] = tested on: johnsongrass (Sorghum halepense, SORHA); test: as above; conditions: rating scale 0-100, 14 days after application
Method in brief: as §1

[9] = tested on: barnyardgrass (Echinochloa crus-galli, ECHCG); test: as above; conditions: rating scale 0-100, 14 days after application
Method in brief: as §1

[10] = tested on: ivyleaf morningglory (Ipomoea hederacea, IPOHE); test: as above; conditions: rating scale 0-100, 14 days after application
Method in brief: as §1

[11] = tested on: velvetleaf (Abutilon theophrasti, ABUTH); test: as above; conditions: rating scale 0-100, 14 days after application
Method in brief: as §1

[12] = tested on: upland rice (Oryza sp., var. Tebonnet, RICE); test: Pre-emerge test, crop safety; conditions: rating scale 0-100, 14 days after application
Method in brief: (§2)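 Fourteen days after spraying, crop and weed injury was graded visually from 0, no effect, to 100, every plant dead. Test substances were dissolved in acetone and applied at 15–1000 g ai/ha with a flat-fan nozzle. Application was either pre-emergence, one day after sowing, or post-emergence at the 2–3 leaf stage.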

[13] = tested on: field corn (Zea mays L., var. Dekalb 535, CORN); test: Pre-emerge test, crop safety; conditions: rating scale 0-100, 14 days after application
Method in brief: as §2

[14] = tested on: large crabgrass (Digitaria sanguinalis, DIGSA); test: Post-emerge test, greenhouse herbicide activity screening; conditions: rating scale 0-100 (0 no damage, 100 complete death), 14 days after application
Method in brief: as §1

[15] = tested on: lambsquarters (Chenopodium album, CHEAL); test: as above; conditions: rating scale 0-100 (0 no damage, 100 complete death), 14 days after application
Method in brief: as §1

[16] = tested on: green foxtail (Setaria viridis, SETVI); test: as above; conditions: rating scale 0-100 (0 no damage, 100 complete death), 14 days after application
Method in brief: as §1

[17] = tested on: sicklepod (Cassia obtusifolia, CASOB); test: as above; conditions: rating scale 0-100 (0 no damage, 100 complete death), 14 days after application
Method in brief: as §1

[18] = tested on: johnsongrass (Sorghum halepense, SORHA); test: as above; conditions: rating scale 0-100 (0 no damage, 100 complete death), 14 days after application
Method in brief: as §1

[19] = tested on: barnyardgrass (Echinochloa crus-galli, ECHCG); test: as above; conditions: rating scale 0-100 (0 no damage, 100 complete death), 14 days after application
Method in brief: as §1

[20] = tested on: redroot pigweed (Amaranthus retroflexus, AMARE); test: as above; conditions: rating scale 0-100 (0 no damage, 100 complete death), 14 days after application
Method in brief: as §1

[21] = tested on: ivyleaf morningglory (Ipomoea hederacea, IPOHE); test: as above; conditions: rating scale 0-100 (0 no damage, 100 complete death), 14 days after application
Method in brief: as §1

[22] = tested on: common ragweed (Ambrosia artemisizfolia L., AMBEL); test: as above; conditions: rating scale 0-100 (0 no damage, 100 complete death), 14 days after application
Method in brief: as §1

[23] = tested on: velvetleaf (Abutilon theophrasti, ABUTH); test: as above; conditions: rating scale 0-100 (0 no damage, 100 complete death), 14 days after application
Method in brief: as §1

Structure (SMILES): COc1c(Cl)cc(F)c(-n2c(=O)cc(C(F)(F)F)n(C)c2=O)c1CC(Cl)C(=O)OCC(F)(F)C(F)F (stereo not shown) [14-22]
- Post-emerge phytotoxicity rating RICE (crop damage) ([1]; Rate 63 g ai/ha): 0
- Post-emerge phytotoxicity rating RICE (crop damage) ([1]; Rate 250 g ai/ha): 10
- Post-emerge phytotoxicity rating CORN (crop damage) ([2]; Rate 63 g ai/ha): 10
- Post-emerge phytotoxicity rating CORN (crop damage) ([2]; Rate 250 g ai/ha): 50
- Pre-emerge herbicidal activity, phytotoxicity rating AMARE ([3]; 63 g ai/ha): 100
- Pre-emerge herbicidal activity, phytotoxicity rating AMARE ([3]; 250 g ai/ha): 100
- Pre-emerge herbicidal activity, phytotoxicity rating DIGSA ([4]; 63 g ai/ha): 0
- Pre-emerge herbicidal activity, phytotoxicity rating DIGSA ([4]; 250 g ai/ha): 50
- Pre-emerge herbicidal activity, phytotoxicity rating CHEAL ([5]; 63 g ai/ha): 20
- Pre-emerge herbicidal activity, phytotoxicity rating CHEAL ([5]; 250 g ai/ha): 90
- Pre-emerge herbicidal activity, phytotoxicity rating SETVI ([6]; 63 g ai/ha): 0
- Pre-emerge herbicidal activity, phytotoxicity rating SETVI ([6]; 250 g ai/ha): 0
- Pre-emerge herbicidal activity, phytotoxicity rating CASOB ([7]; 63 g ai/ha): 0
- Pre-emerge herbicidal activity, phytotoxicity rating CASOB ([7]; 250 g ai/ha): 0
- Pre-emerge herbicidal activity, phytotoxicity rating SORHA ([8]; 63 g ai/ha): 0
- Pre-emerge herbicidal activity, phytotoxicity rating SORHA ([8]; 250 g ai/ha): 0
- Pre-emerge herbicidal activity, phytotoxicity rating ECHCG ([9]; 63 g ai/ha): 0
- Pre-emerge herbicidal activity, phytotoxicity rating ECHCG ([9]; 250 g ai/ha): 0
- Pre-emerge herbicidal activity, phytotoxicity rating IPOHE ([10]; 63 g ai/ha): 0
- Pre-emerge herbicidal activity, phytotoxicity rating IPOHE ([10]; 250 g ai/ha): 0
- Pre-emerge herbicidal activity, phytotoxicity rating ABUTH ([11]; 63 g ai/ha): 0
- Pre-emerge herbicidal activity, phytotoxicity rating ABUTH ([11]; 250 g ai/ha): 70
- Pre-emerge phytotoxicity rating, crop damage RICE ([12]; 63 g ai/ha): 0
- Pre-emerge phytotoxicity rating, crop damage RICE ([12]; 250 g ai/ha): 10
- Pre-emerge phytotoxicity rating, crop damage CORN ([13]; 63 g ai/ha): 0
- Pre-emerge phytotoxicity rating, crop damage CORN ([13]; 250 g ai/ha): 0
- Post-emerge Herbicidal Activity, phytotoxicity rating DIGSA ([14]; Rate 63 g ai/ha): 80
- Post-emerge Herbicidal Activity, phytotoxicity rating DIGSA ([14]; Rate 250 g ai/ha): 95
- Post-emerge Herbicidal Activity, phytotoxicity rating CHEAL ([15]; Rate 63 g ai/ha): 50
- Post-emerge Herbicidal Activity, phytotoxicity rating CHEAL ([15]; Rate 250 g ai/ha): 90
- Post-emerge Herbicidal Activity, phytotoxicity rating SETVI ([16]; Rate 63 g ai/ha): 30
- Post-emerge Herbicidal Activity, phytotoxicity rating SETVI ([16]; Rate 250 g ai/ha): 60
- Post-emerge Herbicidal Activity, phytotoxicity rating CASOB ([17]; Rate 63 g ai/ha): 0
- Post-emerge Herbicidal Activity, phytotoxicity rating CASOB ([17]; Rate 250 g ai/ha): 50
- Post-emerge Herbicidal Activity, phytotoxicity rating SORHA ([18]; Rate 63 g ai/ha): 40
- Post-emerge Herbicidal Activity, phytotoxicity rating SORHA ([18]; Rate 250 g ai/ha): 60
- Post-emerge Herbicidal Activity, phytotoxicity rating ECHCG ([19]; Rate 63 g ai/ha): 100
- Post-emerge Herbicidal Activity, phytotoxicity rating ECHCG ([19]; Rate 250 g ai/ha): 100
- Post-emerge Herbicidal Activity, phytotoxicity rating AMARE ([20]; Rate 63 g ai/ha): 50
- Post-emerge Herbicidal Activity, phytotoxicity rating AMARE ([20]; Rate 250 g ai/ha): 100
- Post-emerge Herbicidal Activity, phytotoxicity rating IPOHE ([21]; Rate 63 g ai/ha): 10
- Post-emerge Herbicidal Activity, phytotoxicity rating IPOHE ([21]; Rate 250 g ai/ha): 80
- Post-emerge Herbicidal Activity, phytotoxicity rating AMBEL ([22]; Rate 63 g ai/ha): 100
- Post-emerge Herbicidal Activity, phytotoxicity rating AMBEL ([22]; Rate 250 g ai/ha): 100
- Post-emerge Herbicidal Activity, phytotoxicity rating ABUTH ([23]; Rate 63 g ai/ha): 30
- Post-emerge Herbicidal Activity, phytotoxicity rating ABUTH ([23]; Rate 250 g ai/ha): 100
